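Tested at 5 concentrations; 48 h exposure; 96-well plates; endpoints linearly interpolated, else capped at highest concentration. GI50 is the concentration that inhibits growth by half.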 The source made the active and inactive calls. Rule as the data show it: active = GI50 up to about 1.1 µM and inactive = higher. Non-standard residues stand in square brackets, D forms with d. Residues, ends and D or L forms follow the SMILES beside them. ξ: configuration not given here. *: point of attachment. Cbz = O=C(OCc1ccccc1)*; ξK = NCCCCC(N)C(=O)O
How the values were obtained:
Test in all cases: NCI-60 cell line screen, 48 h
786-0 = system: 786-0
ACHN = system: ACHN
HCC 2998 = system: HCC 2998
HOP-92 = system: HOP-92
HT-29 = system: HT-29
IGROV-1 = system: IGROV-1
LOX IMVI = system: LOX IMVI
MCF7 = system: MCF7
Malme-3M = system: Malme-3M
NCI-H23 = system: NCI-H23
NCI-H522 = system: NCI-H522
OVCAR-3 = system: OVCAR-3
RXF 393 = system: RXF 393
SK-MEL-5 = system: SK-MEL-5
SNB-19 = system: SNB-19
SNB-75 = system: SNB-75
SW-620 = system: SW-620
T47D = system: T47D
U-251 = system: U-251
UO-31 = system: UO-31

Measured: GI50

CC(C)[C@@H]1CC[C@@H](C)C[C@H]1OC(=O)/C=C1/C2C=CC(O2)C1C(=O)O[C@@H]1C[C@H](C)CC[C@H]1C(C)C (stereo not given in full)
inactive: 786-0 > 100 µM | ACHN > 100 µM | HCC 2998 13.5 µM | HOP-92 > 100 µM | HT-29 48.5 µM | IGROV-1 > 100 µM | LOX IMVI > 100 µM | MCF7 97.5 µM | Malme-3M > 100 µM | NCI-H23 > 100 µM | NCI-H522 41.8 µM | OVCAR-3 > 100 µM | RXF 393 > 100 µM | SK-MEL-5 > 100 µM | SNB-19 > 100 µM | SNB-75 > 100 µM | SW-620 > 100 µM | T47D 45.3 µM | U-251 > 100 µM | UO-31 > 100 µM

NCCCCC(NC(=O)OCc1ccccc1)C(=O)NCC(N)=O (stereo not given) (Cbz-[ξK]-Gly-NH2)
inactive: 786-0 > 100 µM | ACHN > 100 µM | HCC 2998 > 100 µM | HOP-92 > 100 µM | HT-29 > 100 µM | IGROV-1 > 100 µM | LOX IMVI > 100 µM | MCF7 > 100 µM | Malme-3M > 100 µM | NCI-H23 > 100 µM | NCI-H522 > 100 µM | OVCAR-3 > 100 µM | RXF 393 > 100 µM | SK-MEL-5 > 100 µM | SNB-19 > 100 µM | SNB-75 > 100 µM | SW-620 > 100 µM | T47D > 100 µM | U-251 > 100 µM | UO-31 > 100 µM

Reference: ChEMBL document CHEMBL1201862, “PubChem BioAssay data set” (2004)
